Data as given in patent US20250295619A1, “Use of Salvianolic Acid E in the Preparation of Drugs Targeting Senescent Cells, Inhibiting Tumors or Extending Lifespan” (Shanghai Institute of Nutrition and Health, Chinese Academy …, priority 2024, published 2025).
“Also recorded” adds a separate entry of the source.

Experiments:
[1] = test system: PC3/PSC27 transplanted tumors; test: PC3/PSC27 xenograft tumor volume in NOD/SCID mice; assay type: in vivo, mouse; conditions: for effect on tumor volume of chemotherapeutic drug combined with SAE: combination with SAE vs chemotherapeutic drug alone; for effect on tumors when combined with MIT: combination with MIT vs MIT alone
Protocol: Every two weeks was a dosing cycle, and MIT (mitoxantrone) was intraperitoneally administered to the mice on the first day of the 3rd/5th/7th weeks. From the first day of the 5th week, the mice were intraperitoneally administered with SAE, […]. After the 8-week course of treatment, the mice were dissected for pathological identification and expression analysis.
All experimental mouse experiments were carried out in strict accordance with the relevant regulations of the Institutional Animal Care and Use Committee (IACUC), Shanghai Institutes for Biological Sciences, Chinese Academy of Sciences. Immuno-deficient mice (NOD-SCID mice, ICR) (body weight about 25 g) aged 6-8 weeks were used for animal experiments related to the present patent. Stromal cells PSC27 and epithelial cells PC3 were mixed at a predetermined ratio of 1:4, and each graft contained 1.25×10^6 cells for tissue remodeling. The xenograft tumors were implanted into mice by subcutaneous transplantation, and the animals were euthanized 8 weeks after the end of the transplantation surgery. Tumor volume was calculated according to the following formula: V=(π/6)×((1+w)/2)3 (V, volume; l, length; w, width).
(§1) In a preclinical treatment trial, subcutaneously transplanted mice were fed with a standard experimental diet, after 2 weeks chemotherapy drugs mitoxantrone (MIT, dose: 0.2 mg/kg) and/or SAE (500 μl, dose: 10 mg/kg) via intraperitoneal administration. The time points were: the former was administrated on the first day of the 3rd, 5th and 7th weeks, and the latter was administrated on the first day of the 5th and 7th weeks. A total of 3 cycles of MIT administration were carried out throughout the course of treatment, and each cycle lasted for 2 weeks. After the course of treatment, mouse tumors were harvested for volume measurement and histological analysis. Each mouse cumulatively received 0.6 mg/kg body weight of MIT and 30 mg/kg body weight of SAE. In order to cause systemic expression of SASP factors induced by chemotherapy, MIT was administered to mice through intravenous infusion according to the above steps and sequence, but the dose was reduced to 0.1 mg/kg body weight/each time (the cumulative dose of MIT received in the whole course of treatment was 0.3 mg/kg body weight) to reduce drug-related toxicity. The chemotherapy experiment ended at the end of the 8th week, and the mice were dissected immediately after sacrifice, and the xenograft tumors were collected and used for pathological system analysis.

[2] = test system: PSC27; test: BrdU and γH2AX immunofluorescence staining of PSC27 cells after bleomycin; assay type: cell-based, human; conditions: PSC27 treated with bleomycin
Protocol: (§2) To cause cell damage, 50 μg/mL bleomycin (bleomycin, BLEO) was added to the culture medium when PSC27 cells grew to 80% (abbreviated as PSC27-CTRL). After 12 hours of drug treatment, the cells were simply washed 3 times with PBS, left in the culture medium for 7-10 days, and then the subsequent experiments were performed.
For immunofluorescent staining, target cells were pre-seeded on a coverslip for at least 24 h after culture in dishes. After a brief wash, the cells were fixed with 4% paraformaldehyde in PBS for 8 min and blocked with 5% normal goat serum (NGS, Thermo Fisher) for 30 min. Mouse monoclonal antibody-anti-phospho-Histone H2A.X (Ser139) (clone JBW301, Millipore) and mouse monoclonal antibody-anti-BrdU (Cat #347580, BD Biosciences), and secondary antibody Alexa Fluor®488 (or 594)-conjugated F (ab′) 2 were sequentially added to the slides coated with the fixed cells. Nuclei were counterstained with 2 μg/ml of 4′, 6-diamidino-2-phenylindole (DAPI). The most representative image was selected from the three observation fields for data analysis and result display. FV1000 laser scanning confocal microscope (Olympus) was used to acquire confocal fluorescent images of cells.

[3] = test system: PSC27; test: SA-β-Gal staining of PSC27 cells (bleomycin-induced senescence, increasing SAE concentration); assay type: cell-based, human; conditions: PSC27 treated with bleomycin 50 μg/ml, vs control cells
Protocol: The P value of positive proportion of cells in these experimental groups for SAE at the concentrations of 100 μM, 200 μM, 400 μM, 800 μM, 1600 μM, 2000 μM and 3000 μM are statistically significant compared with the data at 0 μM.
as §2
Senescence-associated B-galactosidase (SA-β-Gal) staining was performed following a previously reported procedure (Debacq-Chainiaux, et. al., 2009). Briefly, cells in culture dishes were washed with PBS and fixed at room temperature. Cells were fixed in 2% formaldehyde and 0.2% glutaraldehyde for 3 minutes. SA-β-Gal was used for staining with freshly prepared staining solution overnight at 37° C. Images were taken on the next day and the percentage of positive cells per unit area was calculated.

[4] = test system: PSC27; test: Caspase 3/7 apoptosis detection in senescent PSC27 cells (IncuCyte); assay type: cell-based, human; conditions: 20 μM QVD-OPh, 200 μM SAE
Protocol: PSC27 cells gradually entered the senescent stage after being treated with BLEO for 12 hours under culture conditions. 200 μM SAE was added to the medium of senescent cells starting from day 7, NucLight Rapid Red reagent was used to label the cells and caspase 3/7 reagent (IncuCyte) was used for apoptosis detection. Caspase 3/7 activity was detected every 4 hours (n=3).
Statistical differences are obtained by two-way ANOVA (Turkey'test).
PSC27 cells were plated in a 96-well dish, and the cells were induced to senescence under 50 μg/ml of BLEO treatment. SAE and ABT263 were added at concentrations of 200 μM and 1.25 μM, respectively. Cell culture medium was supplemented with Incucyte Nuclight fast Red Reagent (Essen Bioscience) and Incucyte C-3/7 Apoptosis Reagent (Essen Bioscience). Representative field of view was selected to take pictures.

[5] = test system: PC3/PSC27 tumors; test: DNA damage and apoptosis in tumors of treated mice; assay type: in vivo, mouse; conditions: single agent compared with placebo, 7 days after first SAE administration
Description: To investigate mechanisms directly supporting this senescence-associated pattern with expression and reversal of SASP in MIT-administered mice, the inventors dissected tumors in animals treated with both drugs 7 days after the first SAE administration, and the time point of 7 days after administration was selected mainly because drug-resistant clones had not yet formed in cancer cells in the lesion at this time. […] As supporting evidence, when SAE was applied during treatment, caspase 3 cleavage activity was increased, which was a typical hallmark of apoptosis (FIG. 29).

[6] = test system: senescent cells in tumor tissue; test: SA-β-Gal staining of tumor tissues of PC3/PSC27 tumor-bearing mice; assay type: in vivo, mouse; conditions: MIT alone
Protocol: Representative pictures after SA-β-Gal staining. Scale bar, 100 μm.
as §1

[7] = test system: SASP factors; test: LCM and qRT-PCR of SASP factors in mouse lesions; assay type: in vivo; conditions: after MIT administration
Protocol: The stromal cells and cancer cells were specifically separated by LCM technology, total RNA was prepared and used for SASP expression detection. ^, P>0.05; *, P<0.05; **, P<0.01.
as §1, with “The chemotherapy experiment ended at the end of the 8th week, and the mice were dissected immediately after sacrifice, and the xenograft tumors were collected and used for pathological system analysis.” left out

CC(=O)O[C@@]12CO[C@@H]1C[C@H](O)[C@@]1(C)C(=O)[C@H](O)C3=C(C)[C@@H](OC(=O)[C@H](O)[C@@H](NC(=O)OC(C)(C)C)c4ccccc4)C[C@@](O)([C@@H](OC(=O)c4ccccc4)[C@H]21)C3(C)C [DOC, docetaxel]
effect on tumor volume of chemotherapeutic drug combined with SAE [1]: no further tumor shrinkage | tumor volume when chemotherapeutic drug used alone [1]: reduce the tumor volume

bleomycin
BrdU incorporation rate ([2]; vs control cells): greatly reduced | DNA damage repair foci (DDR foci) ([2]; γH2AX staining): significantly increased | positive rate of senescence-associated β-galactosidase (SA-β-Gal) staining [3]: significant increase | effect on tumor volume of chemotherapeutic drug combined with SAE [1]: roughly repeat the significant effect

O=C(/C=C/c1ccc(O/C(=C\c2ccc(O)c(O)c2)C(=O)O)c(O)c1)OC(Cc1ccc(O)c(O)c1)C(=O)O (stereo not shown) [SAI, salvianolic acid I]
effect on tumors when combined with MIT [1]: no significant effects

CC[C@]1(O)C[C@H]2CN(CCc3c([nH]c4ccccc34)[C@@](C(=O)OC)(c3cc4c(cc3OC)N(C=O)[C@H]3[C@@](O)(C(=O)OC)[C@H](OC(C)=O)[C@]5(CC)C=CCN6CC[C@]43[C@@H]65)C2)C1 [VIN, vincristine]
effect on tumor volume of chemotherapeutic drug combined with SAE [1]: no further tumor shrinkage | tumor volume when chemotherapeutic drug used alone [1]: reduce the tumor volume

salvianolic acid J [SAJ]
effect on tumors when combined with MIT [1]: no significant effects

CC(C)[C@H](NC(=O)c1ccc2ccccc2n1)C(=O)N[C@@H](CC(=O)O)C(=O)COc1c(F)cccc1F [QVD, reference compound]
effect of pan-caspase inhibitor on killing of senescent cells by SAE [4]: could prevent the killing of senescent cells by SAE

COc1cccc2c1C(=O)c1c(O)c3c(c(O)c1C2=O)C[C@@](O)(C(=O)CO)C[C@@H]3O[C@H]1C[C@H](N)[C@H](O)[C@H](C)O1 [DOX, doxorubicin]
effect on tumor volume of chemotherapeutic drug combined with SAE [1]: roughly repeat the significant effect

O=C1c2c(O)ccc(O)c2C(=O)c2c(NCCNCCO)ccc(NCCNCCO)c21 [MIT, mitoxantrone]
degree of DNA damage and apoptosis [5]: significant increase | senescent cells in the tumor tissue after MIT administration [6]: induced the appearance of a large number of senescent cells | expression of SASP factors in lesions (mainly stromal cells) [7]: significantly increased; also recorded: significantly elevated expression | reduction in tumor size compared to placebo-treated group ([1]; single agent, end of 8 weeks): 44.1%
